Earlier results on nine molecules are cited in PMC8236845.

Read-outs that look alike come from different tables or passages of the source. Numbered stars: 1 amine (or outer) side, 2 acyl side, 3 side chain; on linkers, the order of the positions; unused ones are H or OH. Bridge positions count the residues as written; N and C are the ends. Square brackets hold non-standard residues; d marks the D form. Peptide text beside a SMILES is read from it. * marks the point of attachment. pTerphenylCO(4''-OnC5H11) = CCCCCOc1ccc(-c2ccc(-c3ccc(C(=O)*)cc3)cc2)cc1; Orn(4R-OH,5R-OH) = O=C([C@H](C[C@@H](O)[C@@H](O)N[*:3])N[*:1])[*:2]; hTyr(3S-OH,4S-OH) = N[C@H](C(=O)O)[C@H](O)[C@@H](O)c1ccc(O)cc1; Pro(3S-OH,4S-Me) = C[C@H]1CN[C@H](C(=O)O)[C@H]1O; Hyp = O=C(O)[C@@H]1C[C@@H](O)CN1

In data set [1] the test system is Middle Eastern Respiratory Syndroms (MERS) coronaviruses. As to conditions: cited from earlier work.
The subject of another data set is SARS-CoV-2. As to conditions: 2021, cited from earlier work.
The test system of the next data set is SARS-CoV-1. Conditions: cited from earlier work.
For data set [2] the following is noted: human, in vivo, cited from earlier work.
For data set [3] the following is noted: used in the context of chemotherapy, cited from earlier work.
In data set [4] the test system is SARS-CoV-2-related Pangolin corona virus. As to conditions: cited from earlier work.
The conditions of data set [5]: cited from earlier work.
Setting [6] is: DOGS topical 24 mg/kg, ref Sarasola et al. (2002).

Regarding `Cc1ccc(NC(=O)c2ccc(CN3CCN(C)CC3)cc2)cc1Nc1nccc(-c2cccnc2)n1` [Imatinib], in data set [1], the “inhibition of MERS coronavirus” value was “reported to inhibit”. In addition, in the data set on SARS-CoV-2 (ref Cagno et al.), the “inhibition of SARS-CoV-2 in cell-culture-based studies” value is listed as “failed to inhibit”. The “inhibition of SARS-CoV-1” value in the data set on SARS-CoV-1 is “reported to inhibit”.
Turning to `C[C@]12CC[C@@H]3c4ccc(OC(=O)c5ccccc5)cc4CC[C@H]3[C@@H]1CC[C@@H]2O` [Estradiol benzoate], in data set [2] (im, 5 mg), the “C max” value is 0.75 ng/mL and the Cmax (usually the highest concentration seen after dosing) was 2 nM. Also, the “inhibition of SARS-COV-2 replication in culture” value in the data set on SARS-CoV-2 (ref Yang et al.) is reported as “reported to inhibit”.
As for `Cc1cn(-c2cc(NC(=O)c3ccc(C)c(Nc4nccc(-c5cccnc5)n4)c3)cc(C(F)(F)F)c2)cn1` [Nilotinib AMN-107, Nilotinib], in data set [2] (po, 300 mg), the “C max (ng/ml)” value was 1,360 ng/ml and the Cmax is 2570 nM. The IC50 – broadly, the point on the concentration scale where inhibition reaches its midpoint – in the data set on SARS-CoV-2 (ref Cagno et al., read-out: IC50 of inhibition of SARS-CoV-2 infection in vitro) is 1500 to 3000 nM.
For `CCCCCOc1ccc(-c2ccc(-c3ccc(C(=O)N[C@H]4C[C@@H](O)[C@@H](O)NC(=O)[C@@H]5[C@@H](O)[C@@H](C)CN5C(=O)[C@H]([C@@H](C)O)NC(=O)[C@H]([C@H](O)[C@@H](O)c5ccc(O)cc5)NC(=O)[C@@H]5C[C@@H](O)CN5C(=O)[C@H]([C@@H](C)O)NC4=O)cc3)cc2)cc1` [Anidulafungin] ({pTerphenylCO(4''-OnC5H11)}-[Orn(4R-OH,5R-OH)]T[Hyp][hTyr(3S-OH,4S-OH)]T[Pro(3S-OH,4S-Me)]; lactam 1-C), in data set [2] (iv), the “C max (ng/ml)” value is on record as 2,500 ng/ml and the Cmax was 2200 nM.
As to `Cc1nc(Nc2ncc(C(=O)Nc3c(C)cccc3Cl)s2)cc(N2CCN(CCO)CC2)n1` [Dasatinib], the “inhibition of MERS coronavirus” value in data set [1] was “reported to inhibit”. Further, the “inhibition of SARS-CoV-2 in cell-culture-based studies” value in the data set with SARS-CoV-2 (ref Cagno et al.) is given as “failed to inhibit”. In the data set with SARS-CoV-1, the “inhibition of SARS-CoV-1” value is “reported to inhibit”.
With `COc1cc([C@@H]2c3cc4c(cc3[C@H](O)[C@H]3COC(=O)[C@@H]23)OCO4)cc(OC)c1OC` [Picropodophyllin], the “side effects” value in data set [3] (ref Ekman et al., 2016) is “moderate to severe side effects”. Besides, in data set [2] (po, 520 mg), the “C max (ng/ml)” value is 207–1,035 ng/ml and the Cmax is 500 to 2500 nM.
As to `CC[C@H](C)[C@@H]1NC(=O)[C@H](Cc2ccc(O)cc2)NC(=O)[C@@H](N)CSSC[C@@H](C(=O)N2CCC[C@H]2C(=O)N[C@@H](CC(C)C)C(=O)NCC(N)=O)NC(=O)[C@H](CC(N)=O)NC(=O)[C@H](CCC(N)=O)NC1=O` [Oxytocin], in data set [2] (inhaled or intranasal, 44 ug), the “C max” value was 0.005 ng/mL and the highest concentration (Cmax) was 5 nM. In addition, in data set [2] (iv), the “C max” value was 0.005 ng/mL and the Cmax was 5 nM.
On to `CC(=O)O[C@@]12CO[C@@H]1C[C@H](O)[C@@]1(C)C(=O)[C@H](O)C3=C(C)[C@@H](OC(=O)[C@H](O)[C@@H](NC(=O)OC(C)(C)C)c4ccccc4)C[C@@](O)([C@@H](OC(=O)c4ccccc4)[C@H]21)C3(C)C` [Docetaxel], for which, in data set [3] (ref Gustafson et al., 2003), the “side effects” value is given as “moderate to severe side effects”. Besides, in data set [2] (iv), the “C max” value was 933 ng/mL and the Cmax is 1230 nM.
Take `CO[C@H]1C[C@H](O[C@@H]2/C(C)=C/C[C@@H]3C[C@@H](C[C@]4(CC[C@H](C)[C@@H](C5CCCCC5)O4)O3)OC(=O)[C@@H]3C=C(C)/C(=N/O)[C@H]4OC/C(=C\C=C\[C@@H]2C)[C@]43O)O[C@@H](C)[C@@H]1O` [Selamectin]: the “inhibition of cytopathic effect” value in data set [4] is given as “inhibited the cytopathic effect”. Besides, the Cmax in data set [5] (DOGS oral 24 mg/kg, ref Sarasola et al. (2002)) is 9.9 µM. Besides, in data set [5] (setting [6]), the “C max” value is 86.5 ng/mL and the peak concentration (Cmax) is 0.11 µM. Further, in data set [5] (oral, dogs, ref Sarasola et al., 2002), the “tolerability” value was “well tolerated”.
